Values belong to the compound of their own block, whether it stands above or below them.
Assays:
[1] = in vivo; cited from earlier work
[2] = test system: blood stages of P. falciparum; settings: cited from earlier work
malaria = settings: cited from earlier work
P. berghei = settings: cited from earlier work
[3] = test system: chloroquine sensitive and resistant P. vivax; settings: Aotus monkeys; cited from earlier work
[4] = cited from earlier work
[5] = Population PK analysis (NONMEM one-compartment model) of plasma tafenoquine concentrations pooled from ten Phase I/II/III clinical studies, with bootstrap evaluation; format: in vivo, human; parameters: key to ωCL^2, variance of inter-individual random effect on CL, final NONMEM estimate / ωV^2, variance of inter-individual random effect on V, final NONMEM estimate / ωKa^2, variance of inter-individual random effect on Ka, final NONMEM estimate / ωCL^2, Bootstrap Estimate / ωV^2, Bootstrap Estimate / ωKa^2, Bootstrap Estimate: variance of ηi, where Pi = P·exp(ηi)
Experimental: Pharmacokinetic (PK) data from several studies (Phase I/II/III) was modeled to establish a consolidated model of tafenoquine and to determine relevant covariates. More specifically, analysis was performed using data obtained from ten Phase I/II/III clinical studies of tafenoquine (U.S. Army Study Numbers: 1, 2, 3, 4, 5, 14, 15, 33, 44 and 58). Table 2 summarizes the key features of each of the studies included in the pooled dataset such as the study type and design, dose and dosing regimen, population, and sample collection schemes. A total of 866 subjects were included in the population analysis. Ninety-three percent of the subjects were male.
The tafenoquine concentrations of plasma samples across the ten studies were analyzed using a validated high-performance liquid chromatography-mass spectrometry method (HPLC-MS) or HPLC with fluorescence detection as previously described (see, Kocisko D A, Walsh D S, Eamsila C, Edstein M D. Measurement of tafenoquine (WR 238605) in human plasma, and venous and capillary blood by high-pressure liquid chromatography. Ther Drug Monit. 2000; 22:184-189; Charles B G, Miller A K, Nasveld P E, Reid M G, Harris I E, Edstein M D. Population pharmacokinetics of tafenoquine during malaria prophylaxis in healthy subjects. Antimicrob Agents Chemother. 2007; 51:2709-2715.
Population PK analyses were carried out using NONMEM version 7.1.2, PDx-Pop version 4.2 (Icon Development Solutions, Hanover, MD) and Intel Visual Fortran Compiler version 12 on a Microsoft Windows XP platform. Plasma tafenoquine concentrations, demographic information and clinical laboratory results from ten studies were used to build a pooled NONMEM input data file for the current population PK analysis. The data were prepared for analysis using SAS software version 9.1.3 (SAS Institute Inc., Cary, NC). Actual dosing and actual blood sampling times, when available, were used for the analysis. Plasma tafenoquine concentrations that were below or equal to the limit of quantification were excluded from the analysis.
Based on the PK profile of tafenoquine from previous modeling efforts (Shanks G D, Oloo A J, Aleman G M, et al. A new primaquine analogue, tafenoquine (WR 238605), for prophylaxis against Plasmodium falciparum malaria. Clin Infect Dis. 2001; 33:1968-1974; Obaldia N 3rd, Rossan R N, Cooper R D, et al. WR 238605, chloroquine, and their combinations as blood schizonticides against a chloroquine-resistant strain of Plasmodium vivax in Aotus monkeys. Am J Trop Med Hyg. 1997; 56:508-10), a one-compartment PK model with first-order absorption and elimination processes was selected to describe best the pharmacokinetics of tafenoquine. As part of the modeling process, a two-compartment PK model with first-order absorption and elimination process was also explored and discarded. The one-compartment PK model was specified in the NONMEM control file and was parameterized in terms of apparent clearance (CL/F), apparent volume of distribution (V/F) and absorption rate constant (Ka) using the PREDPP ADVAN2 with TRANS2 subroutine in NONMEM. First-order conditional estimation (FOCE) with interaction between variance of inter-individual variability and the variance of residual error was used as the estimation method. Inter-individual variability was best described by an exponential error model, as shown below: Pi=Pexp(ηi) • where: • Pi is the estimated parameter for the i^th individual. • P is the population value for the parameter. • ηi are inter-individual random effects for the i^th individual for parameter P and were assumed to be independent and symmetrically distributed with a zero mean and a variance ω^2.
Different structural models (additive, proportional, exponential and combined additive and proportional) were investigated for residual unexplained variability (RUV). RUV was best described by a proportional error model, as shown below: […]

[6] = test system: Plasmodium falciparum malaria; settings: regimens of 50, 100, 200 and 400 mg; cited from earlier work
[7] = final PK model, coefficient of variation

SMILES: COc1cc(NC(C)CCCN)c2ncccc2c1 (stereo not drawn) [primaquine]
Half-life [1]: hours

COVCL,V, Bootstrap Estimate ([5]; 1000 bootstrap samples): 0.0250
θCL, Bootstrap Estimate ([5]; 1000 bootstrap samples): 4.15
θCL-AGE, Bootstrap Estimate ([5]; 1000 bootstrap samples): −0.200
θCL-WT, Bootstrap Estimate ([5]; 1000 bootstrap samples): 0.554
θKA, Bootstrap Estimate ([5]; 1000 bootstrap samples): 0.351
θV, Bootstrap Estimate ([5]; 1000 bootstrap samples): 2482
θV-FOOD, Bootstrap Estimate ([5]; 1000 bootstrap samples): 0.810
θV-WT, Bootstrap Estimate ([5]; 1000 bootstrap samples): 0.774
σ^2, Bootstrap Estimate ([5]; 1000 bootstrap samples): 0.0486
ωCL^2, Bootstrap Estimate ([5]; 1000 bootstrap samples): 0.0536
ωKa^2, Bootstrap Estimate ([5]; 1000 bootstrap samples): 0.283
ωV^2, Bootstrap Estimate ([5]; 1000 bootstrap samples): 0.0521
Inter-individual variability associated with CL/F before inclusion of covariates WT and age ([5]; base model, without covariates): 26.5%
Inter-individual variability of V/F before inclusion of covariates WT and meal condition ([5]; base model, without covariates): 29.6%
Vd/F ([5]; both sexes, human, plasma, oral, final PK model, WT 75 kg, fasted, read-out: θV, population apparent volume of distribution (V/F), final NONMEM estimate): 2470 L
COVCL,V, covariance, final NONMEM estimate ([5]; final PK model): 0.0289
θV-WT, exponent of weight effect on V/F, final NONMEM estimate ([5]; final PK model): 0.781
σ^2, variance of the proportional residual random effect, final NONMEM estimate ([5]; final PK model): 0.0488
ωCL^2, variance of inter-individual random effect on CL, final NONMEM estimate ([5]; final PK model): 0.0555
ωKa^2, variance of inter-individual random effect on Ka, final NONMEM estimate ([5]; final PK model): 0.293
ωV^2, variance of inter-individual random effect on V, final NONMEM estimate ([5]; final PK model): 0.0583
θV-FOOD, food effect on V/F, final NONMEM estimate ([5]; final PK model, FOOD = 0 fasted, 1 fed): 0.822
Inter-individual variability of CL/F [5, 7]: 23.6%
Inter-individual variability of Ka [5, 7]: 54.1%
Inter-individual variability of V/F [5, 7]: 24.1%
Ka, first-order absorption rate constant, final NONMEM estimate ([5]; oral, final PK model): 0.359 h⁻¹
θCL, population apparent clearance (CL/F), final NONMEM estimate ([5]; oral, final PK model, WT 75 kg, age 25 y): 4.17 L/h
SMILES: COc1cc(C)c2c(Oc3cccc(C(F)(F)F)c3)c(OC)cc(NC(C)CCCN)c2n1 (stereo not drawn) [tafenoquine, -[2,6-Dimethoxy-4-methyl-5-[3-(trifluoromethyl)phenoxy]quinolin-8-yl]pentane-1,4-diamine]
Activity against blood stages of P. falciparum in vitro [2]: active
Half-life [1]: weeks
Protective efficacy (malaria; 200 mg daily for three days, then 200 mg weekly, 95% CI 93%-100%): 100%
Malaria breakthroughs (malaria; reference regimen, non-immune, primarily Caucasian Australian soldiers): no malaria breakthroughs were observed
Activity against P. berghei in mice in vivo (P. berghei): active
Cure of chloroquine sensitive and resistant P. vivax infections [3]: cured
Incidence of gastrointestinal adverse events relative to 400 mg once daily or BID for three days (total dose 1200 mg) ([4]; 200 mg once daily for three days (total dose 600 mg)): approximately half
Threshold dose considered safe in G6PD-deficient individuals ([4]; G6PD-deficient individuals): 300 mg
Safety and tolerability of a loading dose of 400 mg once daily for three days ([4]; G6PD-normal individuals): safe in G6PD-normal individuals in several clinical studies but exhibits gastrointestinal intolerability
Tolerability of a 400 mg dose ([4]; human, in vivo): less well tolerated
Reduction in microscopically confirmed parasitemia [6]: statistically significant reductions

— US12616689B2, “Regimens of tafenoquine for prevention of malaria in malaria-naive subjects” (60 Degrees Pharmaceuticals, Inc., priority 2014, dated 2026)
